# Assay results published in patent publication US20240141294A1, “CGMP COMPLIANT PRODUCTION AND EXPANSION OF PLASMACYTOID DENDRITIC CELLS FROM HEMATOPOIETIC STEM AND PROGENITOR CELLS” (AARHUS UNIVERSITET, priority 2021, published 2024).
# Experiments:
# HSPC-pDCs = test: TLR7 or TLR9 agonist activation, functional type I IFN (HEK-blue IFN-α/β reporter); type: cell-based, human
# Procedure: Priming of HSPC-pDCs was performed as previously described. Isolated HSPC-pDCs were primed in the same medium as the differentiation was done in (either RPMI 1640, SFEM II or DC medium). […] For HSPC-pDCs differentiated in DC medium, medium was also supplemented with 50 μg/mL ascorbic acid. Cells were primed for three days before being phenotypically or functionally characterized.
# To analyze the capacity of HSPC-pDCs to produce type I IFN, 4×10^4 pDCs were seeded out in 96-well plates in the same medium as the differentiation was done in (either RPMI 1640, SFEM II or DC medium). […] Cells were subsequently stimulated with agonists directed against TLR7 (R837, tlrl-imq, InvivoGen) or TLR9 (CpG-A 2216, tlrl-2216-1, InvivoGen) at a final concentration of 2.5 μg/mL. Twenty hours post stimulation supernatants were harvested and cryopreserved at −20° C. until analysis.
# To quantify functional type I IFN, the reporter cell line HEK-blue IFN-α/β was utilized, according to the manufacturer's instructions (InvivoGen). […] Activity of SEAP was assessed using QUANTI-Blue (InvivoGen). Color change was measured at an optical density (OD) of 620 nm using the SpectraMax iD3 platereader (Molecular Devices). […]
# CD34+ HSPCs = test: HSPC expansion and HSPC-pDC differentiation culture (cell numbers, viability, HSPC-pDC yield); type: cell-based, human
# Procedure: Depending on optimization regiments, freshly or cryo-preserved HSPCs from various sources were differentiated to HSPC-pDCs using different types of medium. For STD and LD/RPMI conditions, HSPCs were cultured in RPMI 1640 (Lonza) supplemented with 10% heat-inactivated fetal calf serum (FCS) (HyClone®), 600 μg/mL L-Glutamine (Sigma), 200 U/mL penicillin and 100 μg/mL streptomycin (Gibco®, Life Technologies). For STD conditions, HSPCs were cultured at a fixed volume during pDC differentiation, versus a fixed density of 0.5-5×10^6 cells/mL for the LD condition. For serum-free (SFEM II) or CGMP serum-free medium (DC medium) conditions, HSPCs were cultured in SFEM II or DC medium at low density (0.5-5×10^6 cells/mL). […] All cytokines are from Peprotech. In addition, the small molecule inhibitor StemRegenin 1 (SR1, […] Technologies) was added at a concentration of 1 μM. For serum-free medium conditions, a concentration of 20 μg/mL streptomycin and 20 U/mL penicillin (Gibco, Life Technologies) was added. Moreover, for the CGMP DC medium condition, 50 μg/mL of ascorbic acid was added. Cells were cultured at 37° C., 95% humidity, and 5% CO2 for up to 21 days depending on optimizations. For the fixed density conditions, medium was replenished every 2-4 day depending on the growth of the HSPCs. Total cell numbers during expansion and differentiation of HSPCs was determined using a TC20 Automated Cell Counter (Bio-Rad). At the end of culture, HSPC-pDCs were enriched using a negative selection kit, according to manufacturer's instructions (EasySep Human Plasmacytoid Dendritic Cell Enrichment kit, […] Technologies).
# De-identified umbilical cord blood (UCB) samples were obtained following scheduled caesarean section deliveries of healthy infants at Department of Gynecology and Obstetrics, Skejby University Hospital. Consent was obtained from the mothers. CD34^+ cord blood HSPCs (CB-HSPC) were subsequently purified using EasySep Human Cord Blood CD34 Positive Selection kit II, according to manufacturer's instructions ([…] Technologies). Briefly, a pre-enrichment of CD34+ cells was performed were bi-specific antibodies targeting unwanted cells were used during standard Ficoll-Hypaque (GE Healthcare) density-gradient centrifugation. CD34+ cells were subsequently isolated using anti-CD34 immunomagnetic beads (positive selection). CD34^+ CB HSPCs were either freshly used or cryo-preserved until use.
smiles,measurement,setting,value
O=C1O[C@H]([C@@H](O)CO)C(O)=C1O [ascorbic acid],type I IFN response to synthetic TLR7 and TLR9 agonists,"HSPC-pDCs; HSPC-pDCs from AA culture, isolated day 16 and 21, in contrast to DC medium alone",robust type I IFN response
same,cHSPC-pDC TLR7 and TLR9-mediated type I IFN production,"HSPC-pDCs; cHSPC-pDCs from peripheral blood cHSPCs, SFEM II, DC medium or DC medium+AA",required
same,viability of HSPC-pDCs isolated at day 21,CD34+ HSPCs; AA addition versus 72.8%±3.2% for DC medium alone,92.0%
same,percentage of HSPC-pDCs of the total population of cells,CD34+ HSPCs; AA supplementation of DC medium,without affecting
same,yield of HSPC-pDCs isolated at day 21,CD34+ HSPCs; DC medium+AA versus 0.5×10^9+0.3×10^9 for DC medium alone,1.0×10^9 HSPC-pDCs per 0.1×10^6 CD34+ H
same,expansion during HSPC-pDC differentiation,"CD34+ HSPCs; DC medium+AA versus 13,456 fold (±6,953) for DC medium alone, 1×10^5 HSPCs seeded","33,554 fold"
same,viability of expanding HSPCs during culture,"CD34+ HSPCs; DC medium+AA vs DC medium alone, in particular Day 12+",significantly improved
